Experimental data published in patent US9844546B2, “Antibody against human HIF hydroxylase” (OXFORD UNIVERSITY INNOVATION LIMITED, priority 2001, dated 2017).
Entries after “also recorded” stand apart in the source; their conditions may differ.

Experiments:
HIF = assay: Induction of HIF in tissue culture by esterified equivalents; assay type: cell-based; settings: In-vivo esterified equivalent
[1] = test system: angiogenesis in subcutaneous polyurethane sponge; assay: Murine subcutaneous sponge angiogenesis assay; assay type: in vivo, mouse; settings: 1 mM, 100 microliters injected days 1, 2, 4, 5; day 7; versus solvent
Experimental: Implantation of a polyurethane sponge subcutaneously in a mouse provides an inflammatory stimulus to angiogenesis and is a well established model for assessing the pro- and anti-angiogenic effects of compounds. To test the effects of dimethyl oxalylglycine in vivo, sterile 8 mm sponge discs were inserted under the dorsal skin of C57 Black mice on Day 0. Test solutions were injected through the skin into the sponges of mice once per day on days 1, 2, 4 and 5. Individual mice received 100 microliters aliquots of either sterile dimethyloxalylglycine (0.1 mM, 1 mM or 10 mM) or carrier solution. Animals were sacrificed on day 7 and the sponges removed. The sponges were fixed in 3.7% formaldehyde, paraffin embedded and stained immunohistochemically for von Willebrand factor to identify blood vessels.
Artificial activation of the HIF signalling pathway using the methods of the invention should induce angiogenesis and will therefore be of potential therapeutic use in ischaemic disease. We tested the effect of polypeptide induced HIF stabilisation in an in vitro angiogenesis assay, co-culturing human microvascular endothelial cells (HMEC-1) with empty vector transfected or doxCODD cells. In view of the possibility of sustained activation inducing a negative feedback loop we opted to test the effects of intermittent induction. […]

[2] = test system: HIF hydroxylase (HPH activity); assay: HIF hydroxylase (HPH) inhibition, statements of the description; assay type: biochemical
C. elegans = assay: Immunoblot of ceHIF (HIF-1) in extracts of treated worms; assay type: in vivo; settings: 1 mM, 21% oxygen, wild type worms
Experimental: Immunoblots of ceHIF levels in extracts of c. elegans were carried out to monitor regulation by hypoxia and iron chelation. Firstly, the oxygen dependence of protein induction was analysed. Worms were grown on plates in bell jars flushed with air (N), or with oxygen/balance nitrogen having an oxygen concentration of 5%, 1%, 0.5% or 0.1% for 18 hrs. A graded increase in protein level was seen as the oxygen level was reduced below 5% with the highest level of induction at 0.5 and 0.1% oxygen concentration. The time course of protein induction was then studied. Worms were grown in bell jars flushed with a 0.1% oxygen/balance nitrogen mixture for 0, 4, 8, 16 or 24 hrs before preparation of extracts. […] The time course of protein decay on re-oxygenation was then assessed. Worms were grown in bell jars flushed with air (N) or a 0.1% oxygen/balance nitrogen mixture. Extracts were made either immediately, or after 4 and 8 minutes of re-oxygenation. Decay of ceHIF protein was very rapid on re-oxygenation. […] A time course RNAse protection assay showing cehif mRNA levels in worms exposed to 0.1% oxygen/balance nitrogen for 0, 4, 8, 16 and 24 hrs was carried out. No induction of ceHIF mRNA by hypoxia was seen. […] Induction by iron chelation was also studied in C. elegans. […]

Hep3b and U20S cells = assay: Gal4/HIF-1α 775-826 carboxy terminal transactivator luciferase reporter assay; assay type: cell-based, human; settings: normoxia or 2% hypoxia overnight
Experimental: Hep3b and U20S cells were co-transfected with a mixture of three plasmids; pUAS.tk.luc, encoding a GAL 4 responsive luciferase gene, pgal-hif775-826, a mammalian expression plasmid leading to expression of a fusion between a 147 amino acid DNA binding domain of GAL 4 and the carboxy terminal transactivator of human HIF-1 alpha, and pCMV.beta-gal, encoding a constitutively expressed beta-galactosidase gene as a transfection control.
48 hours following transfection, cells were incubated in normoxia or 2% hypoxia overnight in the presence or absence of dimethyl oxalyl glycine as indicated. Cell lysates were assayed for luciferase and beta galactosidase activity and the relative luciferase activity in each sample determined.

Question: Which “Induction of HIF in tissue culture” value (HIF) does the source give for `COC(=O)CNC(=O)C(=O)OC` [dimethyloxalylglycine] here?
Answer: Its value is “Yes”.

Question: And the “blood vessels in sponges (von Willebrand factor)” value [1]?
Answer: Its value is “Considerably more blood vessels”.

Question: And the “inhibition of HIF hydroxylase / HPH” value [2]?
Answer: The value was “act as inhibitors”.

Question: What about the “ceHIF (HIF-1) protein level in normoxia” value (C. elegans) of the same compound?
Answer: The value was “substantial increase in the amount of immunodetectable ceHIF; also recorded: strongly induced HIF-1”.

Question: And the “relative luciferase activity (carboxy terminal transactivator)” value (Hep3b and U20S cells)?
Answer: Its value is “enhanced activity of the carboxy terminal transactivator”.
